Results as given in US20260152691A1, “METHOD AND COMPOUNDS FOR TREATING OR PREVENTING AUTOIMMUNE DISORDERS OR IMMUNE RESPONSES MODULATED BY THE EXPRESSION OF IDO1” (The Trustees of Princeton University, priority 2019, published 2026).

What was measured:
ferric IDO1 = ferric IDO1 (Homo sapiens, UniProt P14902); experiment: Stopped-flow UV-vis spectrometry of binding to ferric IDO1
Experimental: FIG. 3 is a graph showing the second-order rate constant of 3 MI binding to ferric IDO1 determined by stopped-flow spectrometry.
FIG. 4 is a graph showing stopped-flow UV-vis spectrometry of 3 MI (30 μM) binding to IDO1 (1.4 μM) over 0.2 s.
3-Mercaptoindole (3 MI) was seen to bind to IDO1 with a fast on-rate of 1.7×10^6 M^−1 s^−1 under pseudo-first-order conditions (See FIG. 3), producing a UV-vis spectrum (see FIG. 4) that has a Soret at 424 nm, a lower peak at 321 nm, and broad q-bands at 537 nm and a shoulder at about 575 nm. […] Note that although 3 MI is referred to here, similar results can be seen with other substituted indole compounds disclosed herein.

IDO1 = IDO1 (Homo sapiens, UniProt P14902); experiment: IDO1 activity assay, N-formylkynurenine absorbance at 321 nm; type: biochemical
IDO1, sequence (P14902 whole entry): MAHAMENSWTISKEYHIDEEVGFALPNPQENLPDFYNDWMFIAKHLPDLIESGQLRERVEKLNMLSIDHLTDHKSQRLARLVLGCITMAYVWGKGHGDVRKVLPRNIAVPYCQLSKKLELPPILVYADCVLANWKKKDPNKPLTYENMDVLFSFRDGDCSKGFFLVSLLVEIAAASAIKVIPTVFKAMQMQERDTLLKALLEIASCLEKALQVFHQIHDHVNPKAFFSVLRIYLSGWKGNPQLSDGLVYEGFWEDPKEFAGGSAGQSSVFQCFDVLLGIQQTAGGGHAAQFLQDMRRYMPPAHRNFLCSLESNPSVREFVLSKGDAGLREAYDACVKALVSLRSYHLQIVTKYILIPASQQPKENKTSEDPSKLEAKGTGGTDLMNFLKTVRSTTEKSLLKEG
Experimental: FIG. 2 is a graph showing the activity of IDO1 (500 nM) (204) with L-tryptophan (200 μM) as substrate glutathione alone (203), and also when activated by 3 MI (500 nM) with glutathione (5 mM) (201), and by 3 MI (500 nM) without glutathione (202).
FIG. 6 reflects a system involving IDO1 (50 nM), 0.1 mM L-tryptophan, and 5 mM glutathione in 100 mM sodium phosphate, pH 7.0 with <1 μM 6-chloro-5-fluoro-1H-indole-3-thiol.
The activity of the compounds was determined as follows. UV-vis spectra were recorded using a Hewlett-Packer 8453 diode array spectrophotometer. Activity assays were done at room temperature using 100 mM sodium phosphate, pH 7.0, with 500 nM IDO1 (ε404nm=172 mM^−1 cm^−1) and 50 μM L-tryptophan. These were initiated by addition of IDO1, and activity was monitored at 321 nm where product N-formylkynurenine absorbs (ε321nm=3750 M^−1 cm^−1).
The substituted indole compound was prepared daily in a 100 mM stock solution in dimethyl sulfoxide (DMSO), and this was serially diluted to maintain a consistent final concentration of 1% (v/v) DMSO in each assay. To maintain activity, 5 mM reduced glutathione was added to some of these from a 0.5 M stock solution. The substituted indole compound was generally tested from 100 nM to 10 μM. The ability of each compound to serve as a reducing substrate for IDO1 was fit using a Michaelis-Menten equation. […] Above 5 μM 3 MI, there was a steep inhibitory effect.

ferric-superoxo IDO1 = ferric-superoxo IDO1 (Homo sapiens, UniProt P14902); experiment: Double-mixing stopped-flow spectrometry, reaction with ferric-superoxo IDO1; type: biochemical; conditions: 3 MI kept reduced with 5 mM glutathione; estimated, double exponential fit
ferric-superoxo IDO1, sequence (P14902 whole entry): as above
Experimental: The nature of substituted indole compound-inhibition at high concentrations (>5 μM) was examined further with ferric-superoxo IDO1, the active tryptophan-oxidizing species. Ferric-superoxo IDO1 was generated using double-mixing stopped-flow spectrometry by mixing IDO1 prereduced with 2 mM sodium dithionite into aerobic buffer for 0.5 s. This ferric superoxo species was then mixed in the second push with 3 MI that had been maintained in the reduced state using 5 mM glutathione. 3 MI readily reacted with ferric-superoxo IDO1 to form ferric IDO1 without any observable intermediates. This was shown by a fast shift from the ferric-superoxo complex (Amax 415 nm) to the ferric (Amax 404 nm) that was completed nearly within the mixing time of the instrument (<10 ms) even at the lowest concentration of 3 MI useful for pseudo-first-order reaction conditions (where 3 MI must be at a large excess over IDO1). Following this fast conversion to ferric IDO1, there was a slower shift to the ferric 3 MI-bound complex as indicated by the Soret shifting to 424 nm (as in FIG. 4). To account for both reactions, these traces were fit using a double exponential expression.

myoglobin = molecular target: T1, myoglobin (Homo sapiens, UniProt P02144); experiment: Heme protein selectivity by stopped-flow UV-vis spectrometry, myoglobin; type: biochemical; conditions: pseudo-first-order conditions
T1 sequence (P02144 1-154): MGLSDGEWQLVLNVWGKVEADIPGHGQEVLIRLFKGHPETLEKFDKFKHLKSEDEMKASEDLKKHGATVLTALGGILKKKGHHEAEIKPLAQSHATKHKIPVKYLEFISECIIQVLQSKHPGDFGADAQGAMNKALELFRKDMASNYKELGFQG
Experimental: (§1) Since hydrogen sulfide and polysulfides are known to react with other heme proteins, the selectivity of 3 MI for IDO1 was examined by mixing the substituted indole compounds (such as 3 MI) with several other heme proteins and observing their reactions using stopped-flow UV-vis spectrometry.
(§2) The substituted indole compounds had no effect on catalase even at 250 µM, whereas the substituted indole compounds did appear to reduce myoglobin and hemoglobin, producing their oxygen-bound forms. The substituted indole compound was also able to reduce ferric cytochrome c to its distinctive ferrous form. The second-order rate constants of these reactions were determined under pseudo-first-order conditions giving 6.6×10^3, 1.6×10^4, and 2.7×10^5 M^−1 s^−1 for myoglobin, hemoglobin, and cytochrome c, respectively. […] Unlike myoglobin and hemoglobin, the oxy-form of IDO1 was not observed due to the relatively slow reduction of IDO1 by 3 MI.

hemoglobin = hemoglobin (Homo sapiens, UniProt P68871+P69905); experiment: Heme protein selectivity by stopped-flow UV-vis spectrometry, hemoglobin; type: biochemical; conditions: pseudo-first-order conditions
hemoglobin, sequence (P69905 2-142 limits assumed): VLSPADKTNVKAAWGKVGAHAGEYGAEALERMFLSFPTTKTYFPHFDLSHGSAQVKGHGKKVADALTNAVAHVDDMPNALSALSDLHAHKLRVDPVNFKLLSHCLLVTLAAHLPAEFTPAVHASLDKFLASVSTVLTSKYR
hemoglobin, sequence (P68871 2-147 limits assumed): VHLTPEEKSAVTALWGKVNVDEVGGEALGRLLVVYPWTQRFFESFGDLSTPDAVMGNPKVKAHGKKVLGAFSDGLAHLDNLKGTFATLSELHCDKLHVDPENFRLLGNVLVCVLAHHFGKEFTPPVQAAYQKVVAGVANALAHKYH
Experimental: as §1, §2

ferric cytochrome c = ferric cytochrome c (Homo sapiens, UniProt P99999); experiment: Heme protein selectivity by stopped-flow UV-vis spectrometry, cytochrome c; type: biochemical; conditions: pseudo-first-order conditions
ferric cytochrome c, sequence (P99999 whole entry): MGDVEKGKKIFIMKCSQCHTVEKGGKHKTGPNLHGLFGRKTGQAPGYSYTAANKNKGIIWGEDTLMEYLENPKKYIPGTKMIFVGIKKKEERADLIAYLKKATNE
Experimental: as §1, §2

ferric IDO1, sequence (P14902 whole entry): as the sequence (P14902 whole entry) above

Sc1c[nH]c2ccccc12 [3-Mercaptoindole (3 MI)]
on-rate (second-order rate constant) of binding to IDO1 (ferric IDO1; pseudo-first-order conditions, stopped-flow): 1.7e+06 M⁻¹ s⁻¹

Fc1cc2c(S)c[nH]c2cc1Cl [6-chloro-5-fluoro-1H-indole-3-thiol]
IDO1 activity, N-formylkynurenine absorbance at 321 nm over time (FIG. 6) (IDO1; IDO1 50 nM, 0.1 mM L-tryptophan, 5 mM glutathione, 100 mM sodium phosphate pH 7.0, <1 μM compound, background subtracted): increase in absorbance

Sc1c[nH]c2ccccc12 [3 MI, 3-Mercaptoindole]
Kd of binding to IDO1 (ferric IDO1; complete conversion to bound IDO1 at micromolar concentrations of 3 MI): submicromolar | concentration above which there was a steep inhibitory effect (IDO1): Above 5 μM | Km (IDO1; 500 nM IDO1, 50 μM L-tryptophan, 100 mM sodium phosphate pH 7.0, room temperature, Michaelis-Menten fit, read-out: Km of activation): 2.2 ± 0.7 µM | IDO1 activity with reduced glutathione added (IDO1; 5 mM reduced glutathione (FIG. 2, 201)): sustained 3 MI-induced IDO1 activity | time after which the initial burst of IDO1 activity leveled off (IDO1; 3 MI without glutathione (FIG. 2, 202)): 500 s | second-order rate constant of initial reaction with ferric-superoxo IDO1 (ferric-superoxo IDO1): > 10^7 M^−1 s^−1 | second-order rate constant of reduction of myoglobin (myoglobin): 6600 M⁻¹ s⁻¹ | second-order rate constant of reduction of hemoglobin (hemoglobin): 16000 M⁻¹ s⁻¹ | second-order rate constant of reduction of cytochrome c (ferric cytochrome c): 270000 M⁻¹ s⁻¹
